Here are results for 7 molecules from US8664258B2, “Primary amines and derivatives thereof as modulators of the 5-HT2A serotonin receptor useful for the treatment of disorders related thereto” (Arena Pharmaceuticals, Inc., priority 2006, dated 2014).

Counter-ions that a name gives are not always drawn.

One assay deals with human 5-HT2A receptor (Homo sapiens (Human), UniProt P28223). Put plainly: [125I]DOI radioligand binding assay. To be noted: 0.5 nM [125I]DOI, membranes of COS7 cells transfected with human 5-HT2A receptor. The method, then:
For the IP accumulation assay (Example 10), HEK293 cells were transfected while for the DOI binding assay (Example 11) COS7 cells were transfected. Several protocols well known in the art can be used to transfect cells. The following protocol is representative of the transfection procedures used herein for COS7 or 293 cells.
On day one, COS-7 cells were plated onto 24 well plates, usually 1×10^5 cells/well or 2×10^5 cells/well, respectively. On day two, the cells were transfected by first mixing 0.25 μg cDNA in 50 μL serum-free DMEM/well and then 2 μl lipofectamine in 50 μL serum-free DMEM/well. The solutions (“transfection media”) were gently mixed and incubated for 15-30 minutes at room temperature. The cells were washed with 0.5 mL PBS and then 400 μL of serum free media was mixed with the transfection media and added to the cells. The cells were then incubated for 3-4 hours at 37° C./5% CO2. Then the transfection media was removed and replaced with 1 mL/well of regular growth media.
Compounds of the invention were tested for their ability to bind to a 5-HT2A receptor clone membrane preparation using a radioligand binding assay. Briefly, COS cells were transiently transfected with a pCMV expression vector containing a human 5-HT2A receptor (for the sequence of the receptor see U.S. Pat. No. 6,541,209, SEQ ID NO:24) as described in Example 9.
COS7 cells transfected with recombinant human 5-HT2A receptors were cultured for 48 hr post transfection, collected, washed with ice-cold phosphate buffered saline, pH7.4 (PBS), and then centrifuged at 48,000×g for 20 min at 4° C. The cell pellet was then resuspended in wash buffer containing 20 mM HEPES pH 7.4 and 0.1 mM EDTA, homogenized on ice using a Brinkman polytron, and recentrifuged at 48,000×g for 20 min. at 4° C. The resultant pellet was then resuspended in 20 mM HEPES, pH 7.4, homogenized on ice, and centrifuged (48,000×g for 20 min at 4° C.). Crude membrane pellets were stored at −80° C. until used for radioligand binding assays.
Radioligand binding assays for human 5-HT2A receptor was conducted using the 5-HT2 agonist [^125]DOI as radioligand. To define nonspecific binding, 10 μM DOI was used for all assays. For competitive binding studies, 0.5 nM [^125]DOI was used and compounds were assayed over a range of 0.01 nM to 10 μM. Assays were conducted in a total volume of 200 μl in 96-well Perkin Elmer GF/C filter plates in assay buffer (50 mM Tris-HCl, pH 7.4, 0.5 mM EDTA, 5 mM MgCl2, and 10 μM pargyline). Assay incubations were performed for 60 min at room temperature and were terminated by rapid filtration under vacuum pressure of the reaction mixture over Whatman GF/C glass fiber filters presoaked in 0.5% PEI using a Brandell cell harvestor. Filters were then washing several times with ice-cold wash buffer (50 mM Tris-HCl, pH 7.4). Plates were then dried at room temperature and counted in a Wallac microBeta scintillation counter.

Another assay concerns JC virus. The note with it: cited from earlier work.

Chain of human 5-HT2A receptor (P28223 whole entry): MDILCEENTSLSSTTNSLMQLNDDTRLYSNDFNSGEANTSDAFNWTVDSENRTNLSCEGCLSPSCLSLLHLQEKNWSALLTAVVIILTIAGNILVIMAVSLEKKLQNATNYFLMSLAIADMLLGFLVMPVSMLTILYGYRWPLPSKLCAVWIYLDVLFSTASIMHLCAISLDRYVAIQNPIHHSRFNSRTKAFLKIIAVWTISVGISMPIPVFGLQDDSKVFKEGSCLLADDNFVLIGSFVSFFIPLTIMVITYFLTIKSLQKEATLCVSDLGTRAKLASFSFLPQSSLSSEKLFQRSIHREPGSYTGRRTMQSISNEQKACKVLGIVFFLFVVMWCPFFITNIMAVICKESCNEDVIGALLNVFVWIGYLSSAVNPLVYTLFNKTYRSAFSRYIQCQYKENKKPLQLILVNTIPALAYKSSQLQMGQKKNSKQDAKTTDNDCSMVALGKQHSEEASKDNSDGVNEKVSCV

A word on the IC50: it is the concentration that gives 50% inhibition. Read a low IC50 as inhibition by little substance. On human 5-HT2A receptor, `Cn1nccc1-c1cc(NC(=O)C(=O)c2ccc(F)cc2)ccc1OCCN` [Compound 32, N-[4-(2-Amino-ethoxy)-3-(2-methyl-2H-pyrazol-3-yl)-phenyl]-2-(4-fluoro-phenyl)-2-oxo-acetamide] came in with a concentration for half-maximal inhibition (IC50) of 0.025 nM. For the molecule `Cn1nccc1-c1cc(NC(=O)c2ccno2)ccc1OCCN` [Compound 106, Isoxazole-5-carboxylic acid [4-(2-amino-ethoxy)-3-(2-methyl-2H-pyrazol-3-yl)-phenyl]-amide], the IC50 on human 5-HT2A receptor came to 91 nM. Take `Cc1nc2sccn2c(=O)c1CCN1CCC(=C(c2ccc(F)cc2)c2ccc(F)cc2)CC1` [ritanserin]: in the assay with JC virus, the “JC virus infection of human glial cells” value is “inhibited”. Take `O=C(c1ccc(F)cc1)C1CCN(CCn2c(=O)[nH]c3ccccc3c2=O)CC1` [ketanserin]: the “JC virus infection of human glial cells” value with JC virus was “inhibited”. At human 5-HT2A receptor, `Cn1ncc(Cl)c1-c1cc(NC(=O)c2ccc(F)c(C(F)(F)F)c2)ccc1OCCN` [Compound 197, N-[4-(2-amino-ethoxy)-3-(4-chloro-2-methyl-2H-pyrazol-3-yl)-phenyl]-4-fluoro-3-trifluoromethyl-benzamide trifluoroacetate] came in with an IC50 of 1 nM.

Molecule `Cn1ncc(Cl)c1-c1cc(NC(=O)c2cc(Br)cs2)ccc1OCCN` [Compound 77, 4-bromo-thiophene-2-carboxylic acid [4-(2-amino-ethoxy)-3-(4-chloro-2-methyl-2H-pyrazol-3-yl)-phenyl]-amide trifluoroacetate] gave a half-inhibitory concentration (IC50) at human 5-HT2A receptor of 1.2 nM. `Cn1ncc(Cl)c1-c1cc(NC(=O)C2CCC(C(F)(F)F)CC2)ccc1OCCN` (stereo not shown) [Compound 303, 4-trifluoromethyl-cyclohexanecarboxylic acid [4-(2-amino-ethoxy)-3-(4-chloro-2-methyl-2H-pyrazol-3-yl)-phenyl]-amide trifluoroacetate] yielded an IC50 on human 5-HT2A receptor of 0.26 nM.
